The text below walks through data of patent US9408387B2, “Safening 6-amino-2-(substituted phenyl)-5-substituted-4-pyrimidinecarboxylate herbicide injury on cereal crops” (Dow AgroSciences LLC, priority 2009, dated 2016).

Assay type in all cases: in vivo
For experiment [1], the system named is spring wheat (Triticum aestivum L; TRZAS). In words: Postemergence herbicidal safening in cereal crops, greenhouse, visual injury: spring wheat. The conditions noted are these: Triticum aestivum, post-emergence, 480 h, 20-22 d, read-out: TRZAS Ob (visual injury); for pest or weed control at 8.75 g/ha: herbicide alone 8.75 g/ha; for pest or weed control at 35 g/ha: herbicide alone 35 g ae/ha; for pest or weed control at 70 g/ha: herbicide alone 70 g/ha; for pest or weed control at 140 g/ha: herbicide alone 140 g/ha. The procedure: (§1) Evaluation of Postemergence Herbicidal Safening in Cereal Crops
(§2) Seeds of the desired test plant species were planted in Sun Gro MetroMix® 306 planting mixture, which typically has a pH of 6.0 to 6.8 and an organic matter content of about 30 percent, in plastic pots with a surface area of 103.2 square centimeters (cm^2). When required to ensure good germination and healthy plants, a fungicide treatment and/or other chemical or physical treatment was applied. The plants were grown for 7-36 days (d) in a greenhouse with an approximate 14-hour (h) photoperiod which was maintained at about 18° C. during the day and 17° C. during the night. Nutrients and water were added on a regular basis and supplemental lighting was provided with overhead metal halide 1000-Watt lamps as necessary. The plants were employed for testing when they reached the second or third true leaf stage.
(§3) Treatments consisted of the acids or esters of compounds 1-10 and cloquintocet-mexyl (CQC-M), fenchlorazole-ethyl, mefenpyr-diethyl alone and in combination. Weighed amounts of acid or methyl esters of the compounds of formula (I) were dissolved in a volume of 97:3 v/v acetone/dimethylsulfoxide (DMSO) to obtain concentrated solutions. […] The concentrated solutions of the test compound were diluted with the addition of an aqueous mixture containing acetone, water, isopropyl alcohol, DMSO, Agri-Dex crop oil concentrate, and Triton® X-77 surfactant in a 64.7:26.0:6.7:2.0:0.7:0.01 v/v ratio. Test compounds were diluted to the appropriate application rate with a dilution solution which was prepared by mixing the appropriate volume of 97:3 v/v acetone/DMSO and the appropriate volume of an aqueous mixture containing acetone, water, isopropyl alcohol, DMSO, Agri-Dex crop oil concentrate, and Triton® X-77 surfactant in a 64.7:26.0:6.7:2.0:0.7:0.01 v/v ratio. Compound requirements are based upon a 12 mL application volume at a rate of 187 liters per hectare (L/ha). The concentrated solutions of the safener were prepared following the same procedure. Weighed amounts of safener were dissolved in a volume of 97:3 v/v acetone/DMSO to obtain concentrated safener solutions.
(§4) Spray solutions of the herbicide safener and test compound mixtures were prepared by adding the concentrated solutions to the appropriate amount of dilution solution to form 12 mL spray solution with active ingredients in combinations.
(§5) Formulated compounds were applied to the plant material with an overhead Mandel track sprayer equipped with 8002E nozzles calibrated to deliver 187 L/ha over an application area of 0.503 square meters (m^2) at a spray height of 18 inches (43 centimeters (cm)) above average plant canopy. Control plants were sprayed in the same manner with the solvent blank.
(§6) The treated plants and control plants were placed in a greenhouse as described above and watered by sub-irrigation to prevent wash-off of the test compounds. After 20-22 d, the condition of the test plants as compared with that of the control plants was determined visually and scored on a scale of 0 to 100 percent where 0 corresponds to no injury and 100 corresponds to complete kill.
(§7) Colby's equation was used to determine the herbicidal effects expected from the mixtures (Colby, S. R. Calculation of the synergistic and antagonistic response of herbicide combinations. Weeds 1967, 15, 20-22.).
(§8) The following equation was used to calculate the expected activity of mixtures containing two active ingredients, A and B: Expected=A+B−(A×B/100)
(§9) A=observed efficacy of active ingredient A at the same concentration as used in the mixture.
(§10) B=observed efficacy of active ingredient B at the same concentration as used in the mixture.

Experiment [2] relates to durum wheat (Triticum durum L; TRZDU). In words: Postemergence herbicidal safening in cereal crops, greenhouse, visual injury: durum wheat. The conditions noted are these: herbicide alone 8.75 g/ha; 20-22 d. The procedure:
as §1, §2, §3, §4, §5, §6, §7, §8, §9, §10

Experiment [3] deals with winter wheat (Triticum aestivum L; TRZAW). In words: Postemergence herbicidal safening in cereal crops, greenhouse, visual injury: winter wheat. Particulars: herbicide alone 8.75 g/ha; 20-22 d. As for the experimental part: as §1, §2, §3, §4, §5, §6, §7, §8, §9, §10
The subject of experiment [4] is winter barley (Hordeum vulgare L; HORVW). In words: Postemergence herbicidal safening in cereal crops, greenhouse, visual injury: winter barley. The conditions noted are these: herbicide alone 8.75 g/ha; 20-22 d. The procedure: as §1, §2, §3, §4, §5, §6, §7, §8, §9, §10
Experiment [5] concerns spring barley (Hordeum vulgare L; HORVS). In words: Postemergence herbicidal safening in cereal crops, greenhouse, visual injury: spring barley. The conditions noted are these: Hordeum vulgare, post-emergence, 480 h, 20-22 d, read-out: HORVS Ob (visual injury); for pest or weed control at 8.75 g/ha: herbicide alone 8.75 g/ha; for pest or weed control at 35 g/ha: herbicide alone 35 g ae/ha; for pest or weed control at 70 g/ha: herbicide alone 70 g/ha; for pest or weed control at 140 g/ha: herbicide alone 140 g/ha. The procedure: as §1, §2, §3, §4, §5, §6, §7, §8, §9, §10

The subject of experiment [6] is purple deadnettle (Lamium purpureum L; LAMPU). In words: Postemergence herbicidal activity, greenhouse, visual injury: purple deadnettle. Particulars: Lamium purpureum, post-emergence, 480 h, 20-22 d, read-out: LAMPU Ob (visual injury); for pest or weed control at 35 g/ha: herbicide alone 35 g ae/ha; for pest or weed control at 70 g/ha: herbicide alone 70 g/ha; for pest or weed control at 140 g/ha: herbicide alone 140 g/ha. As for the experimental part: as §1, §2, §3, §4, §5, §6, §7, §8, §9, §10

The next experiment relates to MATCH. In words: Postemergence herbicidal activity, greenhouse, visual injury: MATCH. Particulars: 20-22 d. As for the experimental part: as §1, §2, §3, §4, §5, §6, §7, §8, §9, §10
Experiment [7] concerns kochia (Kochia scoparia L; KCHSC). In words: Postemergence herbicidal activity, greenhouse, visual injury: kochia. Particulars: 20-22 d. As for the experimental part:
as §1, §2, §3, §4, §5, §6, §7, §8, §9, §10

The test system of experiment [8] is corn poppy (Papaver rhoeas L; PAPRH). In words: Postemergence herbicidal activity, greenhouse, visual injury: corn poppy. Particulars: 20-22 d. As for the experimental part: as §1, §2, §3, §4, §5, §6, §7, §8, §9, §10
In experiment [9] the test system is bird's-eye speedwell (Veronica persica L; VERPE). In words: Postemergence herbicidal activity, greenhouse, visual injury: bird's-eye speedwell. Particulars: herbicide alone 8.75 g/ha; 20-22 d. As for the experimental part:
as §1, §2, §3, §4, §5, §6, §7, §8, §9, §10

The test system of the next experiment is CIRAR. In words: Postemergence herbicidal activity, greenhouse, visual injury: CIRAR. Particulars: 20-22 d. The procedure:
as §1, §2, §3, §4, §5, §6, §7, §8, §9, §10

A further experiment has as its system SASKR. In words: Postemergence herbicidal activity, greenhouse, visual injury: SASKR. Particulars: 20-22 d. The procedure: as §1, §2, §3, §4, §5, §6, §7, §8, §9, §10

For the molecule `COC(=O)c1nc(-c2ccc(Cl)c(OC)c2F)nc(N)c1OC` [Compound 4, 6-amino-2-(4-chloro-2-fluoro-3-methoxyphenyl)-5-methoxypyrimidine-4-carboxylic acid methyl ester], the pest or weed control at 8.75 g/ha in experiment [1] was 33%; in [5], 25%. Further, the pest or weed control at 35 g/ha in experiment [1] came to 80%; in experiment [5], 75%; in [6], 100%. The “TRZDU Ob (visual injury)” value in experiment [2] was found to be 18%. Also, the “TRZAW Ob (visual injury)” value in experiment [3] stood at 22%. The “HORVW Ob (visual injury)” value in experiment [4] stood at 7%.
Consider `COc1c(N)nc(-c2ccc(Cl)c(F)c2)nc1C(=O)O` [Compound 9, 6-amino-2-(4-chloro-3-fluorophenyl)-5-methoxypyrimidine-4-carboxylic acid], for which the results for the pest or weed control at 70 g/ha in experiment [1], in experiment [5] and in experiment [6] were 60%, 50% and 95%, respectively. The pest or weed control at 140 g/ha in experiment [1] is 70%; in experiment [5], 70%; in experiment [6] it was 100%. In addition, the figures for the “MATCH Ob (visual injury)” value with MATCH (herbicide alone 70 g/ha) and in the experiment on MATCH (herbicide alone 140 g/ha) were 93% and 97%, respectively. Also, the “KCHSC Ob (visual injury)” value in experiment [7] (herbicide alone 70 g/ha) and in experiment [7] (herbicide alone 140 g/ha) was 100% throughout.
On to `C=Cc1c(N)nc(-c2ccc(Cl)c(OC)c2F)nc1C(=O)O` [Compound 2, 6-amino-2-(4-chloro-2-fluoro-3-methoxyphenyl)-5-vinylpyrimidine-4-carboxylic acid], for which the pest or weed control at 8.75 g/ha in experiment [1] was determined as 41%; in [5], 24%. Besides, the values for the pest or weed control at 35 g/ha in experiment [1], in experiment [5] and in [6] were 80%, 68% and 77%, respectively. Moreover, in experiment [2], the “TRZDU Ob (visual injury)” value is 30%. The “TRZAW Ob (visual injury)” value in experiment [3] is 43%. In [8] (herbicide alone 8.75 g/ha), the “PAPRH Ob (visual injury)” value is recorded as 80%. Besides, the “HORVW Ob (visual injury)” value in experiment [4] worked out at 18%. Moreover, in experiment [9], the “VERPE Ob (visual injury)” value was 70%. In addition, the “KCHSC Ob (visual injury)” value in experiment [7] (herbicide alone 8.75 g/ha) amounted to 40%.
`COc1c(N)nc(-c2ccc(Cl)c(OC)c2F)nc1C(=O)O` [Compound 8, 6-amino-2-(4-chloro-2-fluoro-3-methoxyphenyl)-5-methoxypyrimidine-4-carboxylic acid]: the values for the pest or weed control at 35 g/ha in [1], in experiment [5] and in experiment [6] were 83%, 75% and 100%, respectively. Also, the figures for the pest or weed control at 70 g/ha in experiment [1], in experiment [5] and in experiment [6] were 90%, 50% and 100%, respectively. For the same molecule, the figures for the pest or weed control at 140 g/ha in experiment [1], in experiment [5] and in [6] were 95%, 85% and 100%, respectively. Also, the “PAPRH Ob (visual injury)” value in [8] (herbicide alone 70 g/ha) and in [8] (herbicide alone 140 g/ha) was 100% in each case. Also, the “KCHSC Ob (visual injury)” value was found to be 90% in experiment [7] (herbicide alone 70 g/ha) and 100% in experiment [7] (herbicide alone 140 g/ha).
`C=Cc1c(N)nc(-c2ccc(Cl)c(OC)c2F)nc1C(=O)OC` [Compound 5, 6-amino-2-(4-chloro-2-fluoro-3-methoxyphenyl)-5-vinylpyrimidine-4-carboxylic acid methyl ester]: the pest or weed control at 35 g/ha amounted to 25% in experiment [1], 10% in experiment [5] and 75% in experiment [6]. For the same molecule, the pest or weed control at 70 g/ha in experiment [1] worked out at 18%; in experiment [5], 8%; in [6], 95%. The pest or weed control at 140 g/ha in [1] came out at 40%; in [5], 0%; in experiment [6] it was 95%. The “CIRAR Ob (visual injury)” value was found to be 84% in the experiment with CIRAR (herbicide alone 70 g/ha) and 85% in the experiment with CIRAR (herbicide alone 140 g/ha). Moreover, the “PAPRH Ob (visual injury)” value in experiment [8] (herbicide alone 70 g/ha) is 89%; in experiment [8] (herbicide alone 140 g/ha) it was 90%.
As to `C=Cc1c(N)nc(-c2ccc(Cl)c(N(C)C)c2F)nc1C(=O)O` [Compound 7, 6-amino-2-(4-chloro-3-dimethylamino-2-fluorophenyl)-5-vinylpyrimidine-4-carboxylic acid], the pest or weed control at 35 g/ha was 75% in experiment [1], 70% in [5] and 52% in experiment [6]. The pest or weed control at 70 g/ha in experiment [1] turned out to be 60%; in experiment [5] it was 30%. For the same molecule, the pest or weed control at 140 g/ha came to 70% in experiment [1] and 45% in experiment [5]. Further, the “CIRAR Ob (visual injury)” value is 80% in the experiment with CIRAR (herbicide alone 70 g/ha) and 85% with CIRAR (herbicide alone 140 g/ha). In addition, the “SASKR Ob (visual injury)” value in the experiment with SASKR (herbicide alone 70 g/ha) was 75%; in the experiment on SASKR (herbicide alone 140 g/ha) it was 80%. Besides, the “KCHSC Ob (visual injury)” value in experiment [7] (herbicide alone 70 g/ha) stood at 65%; in experiment [7] (herbicide alone 140 g/ha), 75%.
